Measured values from US4434175A, “Nonsteroidal compounds as anti-inflammatory and analgesic agents” (Merck & Co., Inc., priority 1982, dated 1984).

What was measured:
[1] = tested on: gastric mucosa; test: Gastric Hemorrhage Lesion Formation Assay (GHLF) / gastric irritation; assay type: in vivo, rat (Sprague-Dawley, male); details: for Ave. No. of lesions per Animal / Animal with Lesion: oral, fasted, 4 h; for Animal with Lesion: animals with at least one lesion/group
Experimental: In other words, the novel compounds of the present invention are less toxic in terms of gastric irritation. The GHLF test is conducted according to the following procedure:
Rats (Sprague-Dawley, Males, 120-180 gm) were fasted overnight and dosed orally with drug suspended in 0.5% methylcellulose. The drug concentration was adjusted so that each animal received 1.0 ml/100 gm body weight. Four hours later the animals were killed by asphixiation in carbon dioxide, the stomachs removed, cut open and everted. The mucosal lining was washed and examined under 3X magnification. The lesions are indentified as perforations of the gastric mucosa many of which perforate right through the wall of the stomach.
The results are expressed in two ways, the average number of lesions per stomach, and the number of animals in the group showing at least one lesion.

[2] = tested on: edema induced by carragenin in rat's right hind paw; test: rat foot edema assay (carragenin-induced, C.F.E.); assay type: in vivo, rat (male, Sprague Dawley)
Experimental: The rat foot edema assay, by which anti-inflammatory activity is determined, is based on the ability of the compounds of Formula I to inhibit the edema induced by injection of an inflammatory (phlogistic) agent into the tissue of a rat's foot. Groups of six male rats (Sprague Dawley strain, 150±30 g each) are given orally the compounds to be tested one hour before 0.1 ml of 1% suspension of carragenin in methocel (0.5%) is injected into the plantar surface of the rat's right hind paw. Immediately and again three hours later, the foot volume is measured and recorded. The difference between the […] and final volumes is a measurement of the edema produced. For comparative purposes the activity of the compound to be tested is measured against that produced by the known anti-inflammatory agent, e.g. Zomepirac. The activity measured is also corrected by the swelling, if any, produced by the "control" rats which receive only the methocel solution.

[3] = Rattus norvegicus, oral, one hour before carragenin, foot volume 3 h later

| Compound | Ave. No. of lesions per Animal ([1]; 10 mg/kg) | Animal with Lesion ([1]; 10 mg/kg) | Ave. No. of lesions per Animal ([1]; 30 mg/kg) | Animal with Lesion ([1]; 30 mg/kg) | Ave. No. of lesions per Animal ([1]; 90 mg/kg) | Animal with Lesion ([1]; 90 mg/kg) | inhibition in vivo at 3 mg/kg [2, 3] | inhibition in vivo at 10 mg/kg [2, 3] | inhibition in vivo at 30 mg/kg [2, 3] | further results |
| --- | --- | --- | --- | --- | --- | --- | --- | --- | --- | --- |
| COc1cc(CC(=O)O)n(C)c1C(=O)c1ccc(C(F)(F)F)cc1 [4-CF3C6 H5; OCH3; CH3, 5-(p-trifluoromethylbenzoyl)-4-methoxy-1-methylpyrrole-2-acetic acid] | 0 | 0/6 | 0 | 0/6 | 0 | 0/6 | 24% | 48% | – | Ave. No. of lesions per Animal ([1]; 150 mg/kg): 1; Animal with Lesion ([1]; 150 mg/kg): 1/6; inhibition in vivo at 20 mg/kg [2, 3]: 57% |
| CSc1cc(C(=O)c2c(C)cc(CC(=O)O)n2C)n(C)c1 | – | – | – | – | – | – | – | 33% | 53% | – |
| COc1cc(CC(=O)O)n(C)c1C(=O)c1ccc(Cl)cc1 [4-ClC6 H5; CH3 O; CH3, 5-(p-chlorobenzoyl)-4-methoxy-1-methylpyrrole-2-acetic acid] | 0 | 0/5 | 0 | 0/5 | 2 | 3/5 | 48% | 51% | 70% | inhibition in vivo at 20 mg/kg [2, 3]: 60% |
| Cc1cc(CC(=O)O)n(C)c1C(=O)c1cccn1C | – | – | – | – | – | – | – | – | 26% | – |
| CSc1ccc(C(=O)c2c(C)cc(CC(=O)O)n2C)n1C [drawing 18] | – | – | – | – | – | – | – | 34% | 45% | – |
| Cc1cc(CC(=O)O)n(C)c1C(=O)c1ccc(Cl)cc1 [Zomepirac, reference compound] | – | – | – | – | – | – | – | – | – | Ave. No. of lesions per Animal ([1]; 3 mg/kg): 0.5; Animal with Lesion ([1]; 3 mg/kg): 4/6; Ave. No. of lesions per Animal ([1]; 6 mg/kg): 1.4; Animal with Lesion ([1]; 6 mg/kg): 3/6; Ave. No. of lesions per Animal ([1]; 9 mg/kg): 1.4; Animal with Lesion ([1]; 9 mg/kg): 6/6 |
| Cc1cc(CC(=O)O)n(C)c1C(=O)c1ccccn1 | – | – | – | – | 0 | 0/6 | – | – | – | – |
| COc1cc(CC(=O)O)n(C)c1C(=O)c1ccc(SC)cc1 [4-CH3 SC6 H5; CH3 O; CH3, 5-(p-methylthiobenzoyl)-4-methoxy-1-methylpyrrole-2-acetic acid] | 0.5 | 3/6 | 0.8 | 2/6 | – | – | 45% | – | – | inhibition in vivo at 15 mg/kg ([2]; Rattus norvegicus, 15 mg/kg, oral, one hour before carragenin, foot volume 3 h later): 64% |
| Cc1cc(CC(=O)O)n(C)c1C(=O)c1ccc(Cl)n1C | – | – | – | – | – | – | – | 30% | 41% | – |
| COc1cc(CC(=O)O)n(C)c1C(=O)c1ccc(C)cc1 [4-CH3C6 H5; OCH3; CH3, 5-(p-methylbenzoyl)-4-methoxy-1-methylpyrrole-2-acetic acid] | 0 | 0/6 | 0 | 0/6 | 0 | 0/6 | – | – | – | inhibition in vivo at 5 mg/kg ([2]; Rattus norvegicus, 5 mg/kg, oral, one hour before carragenin, foot volume 3 h later): 38%; inhibition in vivo at 20 mg/kg [2, 3]: 38% |
| CCOc1cc(CC(=O)O)n(C)c1C(=O)c1ccc(Cl)cc1 [4-ClC6 H5; OC2 H5; CH3, 4-ethoxy-5-(p-chlorobenzoyl)-1-methylpyrrole-2-acetic acid] | – | – | – | – | – | – | – | – | – | inhibition in vivo at 20 mg/kg [2, 3]: 33% |
| CSc1ccc(C(=O)c2c(C)cc(CC(=O)OCCNC(C)=O)n2C)n1C [Acetamidoethyl 1,4-dimethyl-5-(1-methyl-5-methylthiopyrrol-2-oyl)pyrrole-2-acetate] | 0 | 0/6 | 0 | 0/6 | 0.5 | 2/6 | – | 13% | 21% | activity, footnote to GHLF table ([1]; footnote to GHLF table): also active; activity in rat foot edema assay ([2]; footnote to edema table): also active |
| CSc1ccc(C(=O)c2c(C)cc(CC(=O)O)n2C)n1C [drawing 24] | 0 | 0/6 | 0 | 0/6 | – | – | – | – | – | Ave. No. of lesions per Animal ([1]; 60 mg/kg): 1.5; Animal with Lesion ([1]; 60 mg/kg): 4/6 |
| Cc1cc(CC(=O)O)n(C)c1C(=O)c1cccnc1 [drawing 23] | – | – | – | – | 0 | 0/6 | – | – | – | – |
| COc1cc(CC(=O)O)n(C)c1C(=O)c1ccc([S+](C)[O-])cc1 (stereo not shown) [4-CH3 SOC6 H5; CH3 O; CH3, 4-methoxy-5-(p-methylsulfinylbenzoyl)-1-methylpyrrole-2-acetic acid] | – | – | – | – | – | – | – | 29% | 23% | – |
| C=C(Cl)COc1cc(CC(=O)O)n(C)c1C(=O)c1ccc(Cl)cc1 [4-ClC6 H5; drawing 13; CH3] | – | – | – | – | – | – | 30% | – | – | inhibition in vivo at 20 mg/kg [2, 3]: 32% |
| Cc1cc(CC(=O)O)n(C)c1C(=O)c1cccnc1 [drawing 19] | – | – | – | – | – | – | 34% | 47% | 33% | – |
| COc1cc(CC(=O)O)n(C)c1C(=O)c1ccc(Cl)n1C | – | – | – | – | – | – | 30% | 35% | 41% | – |
| COc1cc(CC(=O)O)n(C)c1C(=O)c1ccc(F)cc1F [2,4-F2C6 H5; OCH3; CH3, 5-(o-p-difluorobenzoyl)-4-methoxy-1-methylpyrrole-2-acetic acid] | – | – | – | – | – | – | 29% | 35% | 38% | – |
